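48-hour exposure; five concentrations; linearly interpolated endpoints. The concentration for full growth arrest is given as TGI.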
What was measured:
Test in all cases: growth of human tumour cells (NCI), 48 h
A498 renal = system: A498 renal
HL-60(TB) leukemia = system: HL-60(TB) leukemia
HS 578T breast = system: HS 578T breast
HT29 colon = system: HT29 colon
IGROV1 ovarian = system: IGROV1 ovarian
K-562 leukemia = system: K-562 leukemia
KM12 colon = system: KM12 colon
LOX IMVI melanoma = system: LOX IMVI melanoma
MCF7 breast = system: MCF7 breast
MDA-MB-231 breast = system: MDA-MB-231 breast
MOLT-4 leukemia = system: MOLT-4 leukemia
NCI/ADR-RES ovarian = system: NCI/ADR-RES ovarian
SF-539 CNS = system: SF-539 CNS
SK-MEL-28 melanoma = system: SK-MEL-28 melanoma
SR leukemia = system: SR leukemia
UACC-257 melanoma = system: UACC-257 melanoma
MDA-N = system: MDA-N
SK-MEL-2 melanoma = system: SK-MEL-2 melanoma
SN12C renal = system: SN12C renal

SMILES	TGI (A498 renal) [µM]	TGI (HL-60(TB) leukemia) [µM]	TGI (HS 578T breast) [µM]	TGI (HT29 colon) [µM]	TGI (IGROV1 ovarian) [µM]	TGI (K-562 leukemia) [µM]	TGI (KM12 colon) [µM]	TGI (LOX IMVI melanoma) [µM]	TGI (MCF7 breast) [µM]	TGI (MDA-MB-231 breast) [µM]	TGI (MOLT-4 leukemia) [µM]	TGI (NCI/ADR-RES ovarian) [µM]	TGI (SF-539 CNS) [µM]	TGI (SK-MEL-28 melanoma) [µM]	TGI (SR leukemia) [µM]	TGI (UACC-257 melanoma) [µM]	TGI (MDA-N) [µM]	TGI (SK-MEL-2 melanoma) [µM]	TGI (SN12C renal) [µM]
CCOC(=O)c1nc2ccccc2nc1NCc1ccc(OC)cc1	> 100	> 100	> 100	> 100	> 100	> 100	> 100	> 100	> 100	> 100	> 100	> 100	> 100	> 100	> 100	> 100	–	–	–
COc1ccc(CNc2nc3cc(C(F)(F)F)ccc3nc2C(=O)O)cc1OC	73.2	–	–	> 100	66	74.7	> 100	> 100	95	> 100	55.7	> 100	> 100	> 100	63.8	> 100	> 100	51.8	77.9
COC(=O)C[C@@H]1C(C)(C)[C@@H]2O[C@@]34C[C@@H]2C(=O)[C@]1(C)[C@H]3CC[C@@]1(C)[C@H](c2ccoc2)OC(=O)C[C@]14O	> 100	> 100	–	> 100	> 100	> 100	> 100	> 100	> 100	> 100	> 100	> 100	> 100	> 100	> 100	> 100	> 100	> 100	> 100
Cc1ccc2c(=O)cc(-c3cccc4ccccc34)[nH]c2n1	0.0568	0.0318	> 91.5	0.0658	> 100	> 36.8	1.98	9.5	> 43.1	> 100	> 100	> 100	–	> 100	> 100	> 100	–	2.47	> 100
COc1cccc2c(NNc3ccccc3)c3ccc([N+](=O)[O-])cc3nc12	> 100	–	–	> 100	> 100	> 100	46.1	> 100	> 100	> 100	5.84	> 100	> 100	> 100	50.5	> 100	> 100	> 100	> 100
CN(/N=C/c1cccs1)c1ccc(Cl)cc1[N+](=O)[O-]	–	54.1	76.2	> 100	> 100	> 100	> 100	–	> 100	> 100	> 100	66.7	75	> 100	> 100	> 100	> 100	–	> 100
O=C(C#CP(=O)(O)c1ccccc1)c1ccccc1	> 100	–	> 100	> 100	> 100	> 100	> 100	> 100	> 100	–	–	> 100	> 100	> 100	> 100	> 100	> 100	> 100	> 100
COC1=NC(NC2OCC(O)C(O)C2O)=C(NC(C)=O)CN1C (centres undefined)	> 100	> 100	> 100	> 100	–	> 100	> 100	> 100	> 100	> 100	> 100	> 100	> 100	> 100	–	–	> 100	> 100	–
CC(C)(C)[Si](C)(C)OCCCCC1CC2(S(=O)(=O)C3=CC=C=C=C3)ON1CC2S(=O)(=O)c1ccccc1 (centres undefined)	> 100	–	> 100	> 100	> 100	> 100	> 100	–	> 100	> 100	> 100	> 100	> 100	> 100	–	> 100	> 100	> 100	> 100
CCOC(=O)CC(=O)C(=O)NNC1=NCCCN1	–	> 100	> 100	> 100	> 100	> 100	> 100	> 100	> 100	> 100	> 100	–	> 100	> 100	> 100	–	> 100	> 100	> 100
COC(=O)CCC(NC(=O)C(C)NC(=O)COC1C(O)C(OC(=O)CCNc2c3ccccc3nc3cccc([N+](=O)[O-])c23)OC(OCc2ccccc2)C1NC(C)=O)C(N)=O (centres undefined)	> 10	–	> 10	> 10	> 10	> 10	> 10	> 10	9.81	> 10	> 10	–	> 10	–	–	> 10	6.04	5.57	> 10
COC(=O)c1ccc(N=NN(C)COc2ccc(C#N)cc2)cc1	> 100	50.4	> 100	> 100	> 100	> 100	> 100	> 100	> 100	> 100	> 100	> 100	> 100	> 100	–	> 100	> 100	> 100	> 100
NCC#CCNCCCN1CC1	> 100	> 100	> 100	> 100	> 100	> 100	> 100	> 100	> 100	–	–	> 100	> 100	> 100	> 100	> 100	> 100	> 100	> 100

Source: PubChem BioAssay (NCI)
